The source made the active and inactive calls. The calls are words filed in the database; no cut-off is given here.

The test system of data set [1] is Phytophthora infestans. The data set is described as follows: Antioomycete activity against Phytophthora infestans isolate 208m2 infected potato plants assessed as decrease in fungal biomass at 100 uM applied on the abaxial leaf surface 2 hr prior to zoospore inoculation measured 3 days after fungal challenge by realtime PCR analysis. The data set is classed as functional.

The next data set relates to Solanum tuberosum. In words: Phytotoxicity against Solanum tuberosum cv. Desiree (potato) leaves at 1000 uM. It is filed as organism-based. The settings on record: in vivo.
Data set [2] concerns Phytophthora infestans. In words: Antioomycete activity against Phytophthora infestans isolate 208m2 infected potato plants assessed as decrease in fungal biomass at 10 uM applied on the abaxial leaf surface 2 hr prior to zoospore inoculation measured 3 days after fungal challenge by realtime PCR analysis. It is filed as functional.
Data set [3] concerns Colletotrichum coccodes. The data set is described as follows: Fungicidal activity against Colletotrichum coccodes CBS 369.75 assessed as one-day-old mycelial growth inhibition at 1 uM measured every 24 hr by multiwell plate assay. The settings on record: CBS 369.75, 24 h, read-out: GI. The data set is classed as functional.
The test system of data set [4] is Phytophthora infestans. The data set is described as follows: Antioomycete activity against Phytophthora infestans isolate 208m2 assessed as zoospore germination at 1 uM after 24 hr by light microscopy. The data set is classed as functional.
In data set [5] the test system is Phytophthora infestans. The data set is described as follows: Antioomycete activity against Phytophthora infestans isolate 208m2 assessed as inhibition of zoospore germination at 100 nM after 24 hr by light microscopy. The data set is classed as functional. The settings on record: isolate 208m2, 24 h.
Data set [6] relates to Colletotrichum coccodes. In words: Fungicidal activity against Colletotrichum coccodes CBS 369.75 assessed as one-day-old mycelial growth inhibition at 100 uM measured every 24 hr by multiwell plate assay. The data set is classed as functional, organism-based.
Data set [7] concerns Phytophthora infestans. In words: Antioomycete activity against Phytophthora infestans isolate 208m2 assessed as inhibition of zoospore germination at 10 nM after 24 hr by light microscopy. It is filed as functional, organism-based.
Data set [8] has as its system Phytophthora infestans. In words: Antioomycete activity against Phytophthora infestans isolate 208m2 assessed as lysis of zoospores at 100 uM after 24 hr by light microscopy. The data set is classed as functional, organism-based.
Data set [9] relates to Phytophthora infestans. The data set is described as follows: Antioomycete activity against Phytophthora infestans isolate 208m2 expressing GFP assessed as one-day-old mycelial growth inhibition at 1 mM by plate reader analysis. The data set is classed as functional, organism-based.
The test system of data set [10] is Phytophthora infestans. The data set is described as follows: Antioomycete activity against Phytophthora infestans isolate 208m2 assessed as zoospore germtube length at 10 nM to 100 uM after 24 hr by light microscopy. The data set is classed as functional, organism-based.
Data set [11] has as its system Colletotrichum coccodes. In words: Fungicidal activity against Colletotrichum coccodes CBS 369.75 assessed as one-day-old mycelial growth inhibition at 0.01 uM measured every 24 hr by multiwell plate assay. The data set is classed as functional, organism-based.
Data set [12] relates to Phytophthora infestans. In words: Antioomycete activity against Phytophthora infestans isolate 208m2 expressing GFP assessed as mature (3-weeks-old) mycelial growth inhibition at 1 to 100 uM applied as a drop solution measured after 24 hr by fluorescence stereomicroscopic analysis. It is filed as functional, organism-based.
Data set [13] has as its system Phytophthora infestans. The data set is described as follows: Antioomycete activity against Phytophthora infestans isolate 208m2 assessed as inhibition of zoospore germination at 3.7 uM after 24 hr by light microscopy. It is filed as functional, organism-based.

As usually defined, the inhibition is the drop in the measured response relative to a control, in per cent. Take `CCCCCCCCCCCCC(=O)/C=C/C(=O)[O-].[Na+]`: the inhibition at 100 µM with Phytophthora infestans [1] amounted to 95%. Further, in the data set on Solanum tuberosum, the Activity result is “Non-toxic”. Further, the inhibition at 10 µM in the data set on Phytophthora infestans [2] is 80%.
Regarding `CCCCCCCCCCCCC(=O)/C=C/C(=O)O` [listing 1 of 2 here], the inhibition of growth at 1 µM in the data set with Colletotrichum coccodes [3] was 1.5%. For the same compound, the Activity with Phytophthora infestans [4] is under 10%. Also, the inhibition at 0.1 µM in the data set on Phytophthora infestans [5] was over 50%.
Take `CCCCCCCCCCCCC(=O)/C=C/C(=O)O` [listing 2 of 2 here]: the “growth inhibition (GI)” value in the data set with Colletotrichum coccodes [6], in the data set with Phytophthora infestans [9], in the data set on Colletotrichum coccodes [11] and in the data set with Phytophthora infestans [12] was “Active” in each case. The inhibition entry in the data set with Phytophthora infestans [7] and in the data set on Phytophthora infestans [13] was “Active” each time. Further, the result with Phytophthora infestans [8] and in the data set with Phytophthora infestans [10] was Active.

The record behind these values is ChEMBL document CHEMBL3046922, “Antioomycete activity of gamma-oxocrotonate fatty acids against P. infestans” (J Agric Food Chem, 2009).
